According to BindingDB's records for patent WO2022076764 (BRISTOL-MYERS SQUIBB COMPANY, 2022):

What was measured:
[1] = biological target: T1, N-formyl peptide receptor 2 (Homo sapiens, UniProt P25090)
T1 sequence (P25090 whole entry): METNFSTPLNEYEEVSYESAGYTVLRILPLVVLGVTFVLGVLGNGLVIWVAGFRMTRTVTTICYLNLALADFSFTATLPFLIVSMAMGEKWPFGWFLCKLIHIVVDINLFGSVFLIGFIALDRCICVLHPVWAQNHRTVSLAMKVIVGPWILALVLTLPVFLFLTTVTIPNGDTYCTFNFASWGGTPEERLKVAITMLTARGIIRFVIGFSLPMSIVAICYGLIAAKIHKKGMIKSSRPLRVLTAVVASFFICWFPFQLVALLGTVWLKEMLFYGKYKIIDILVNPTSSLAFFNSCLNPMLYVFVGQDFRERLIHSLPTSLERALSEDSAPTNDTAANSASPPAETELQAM

fMet-Leu-Phe receptor = biological target: T2, fMet-Leu-Phe receptor (Homo sapiens, UniProt P21462)
T2 sequence (P21462 whole entry): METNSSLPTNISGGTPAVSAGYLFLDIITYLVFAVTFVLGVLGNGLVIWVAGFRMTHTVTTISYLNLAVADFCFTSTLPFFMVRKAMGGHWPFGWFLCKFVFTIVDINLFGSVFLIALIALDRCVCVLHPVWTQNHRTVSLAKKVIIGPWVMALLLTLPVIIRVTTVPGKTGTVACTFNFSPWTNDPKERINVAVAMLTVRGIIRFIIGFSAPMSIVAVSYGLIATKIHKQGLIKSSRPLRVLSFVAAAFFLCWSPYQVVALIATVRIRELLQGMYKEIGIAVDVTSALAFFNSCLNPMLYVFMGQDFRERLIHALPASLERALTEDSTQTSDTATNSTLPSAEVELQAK

| Structure (SMILES) | EC50 [1] [nM] | EC50 (fMet-Leu-Phe receptor) [nM] |
| --- | --- | --- |
| COc1cc(F)c(-n2cc(Cc3nnc(C)o3)nc2NC(=O)c2ccc(OC(F)F)cc2)c(F)c1 [WO2022076764, Example 73] | 300 | 23 |
| COc1cc(F)c(-n2cc(C3CCC(O)CC3)nc2NC(=O)c2ccc(OC(F)F)cc2)c(F)c1 (centres undefined) [WO2022076764, Example 76] | 240 | 10 |
| COc1cc(F)c(-n2cc(Cc3ccccn3)nc2NC(=O)c2ccc(OC(F)F)cc2)c(F)c1 [WO2022076764, Example 78] | 870 | 56 |
| COc1cc(F)c(-n2cc(C3CNC3)nc2NC(=O)c2ccc(OC(F)F)cc2)c(F)c1 [WO2022076764, Example 79] | 4200 | 81 |
| COc1cc(F)c(-n2cc(-c3ccn[nH]3)nc2NC(=O)c2ccc(OC(F)F)cc2)c(F)c1 [WO2022076764, Example 80] | 500 | 59 |
| COc1cc(F)c(-n2cc(C3CC(N)C3)nc2NC(=O)c2ccc(OC(F)F)cc2)c(F)c1 (centres undefined) [WO2022076764, Example 81] | 5400 | 4 |
| COc1cc(F)c(-n2cc(C3CC(NS(C)(=O)=O)C3)nc2NC(=O)c2ccc(OC(F)F)cc2)c(F)c1 (centres undefined) [WO2022076764, Example 83] | 400 | 5 |
